The target of one experiment is T1, FGFR3 (Homo sapiens, UniProt P22607).
T1 construct: Enzymes (from Upstate) were prepared at 2× final concentration in 1× kinase assay buffer; purchased Upstate
Nature of the experiment: FGFR3 in vitro kinase inhibitory activity assay (TRF). The experiment is classed as biochemical. The protocol:
Enzymes (from Upstate) were prepared at 2× final concentration in 1× kinase assay buffer (as described below). Enzymes were then incubated with test compounds, biotinylated Flt3 substrate (biotin—DNEYFYV) (Cell Signalling Technology Inc.) and ATP. The reaction was allowed to proceed for 3 hours (FGFR3) or 2.5 hrs (PDGFR-beta) at room temperature on a plate shaker at 900 rpm before being stopped with 20 μl of 35 mM EDTA, pH 8 (FGFR3) or 55 mM EDTA, pH 8 (PDGFR-beta). Twenty μl of 5× detection mix (50 mM HEPES pH 7.5, 0.1% BSA, 2 nM Eu-anti-pY (PY20) (PerkinElmer) 15 nM SA-XL665 (Cisbio) for FGFR3 and 50 mM HEPES, pH 7.5, 0.5 M KF, 0.1% BSA, 11.34 nM Eu-anti-pY (PT66) (PerkinEimer), 94 nM SA-XL665 (Cisbio) for PDGFR-beta) was then added to each well and the plate sealed and incubated at room temperature for one hour on a plate shaker at 900 rpm. The plate was then read on a Packard Fusion plate reader in TRF mode.
Kinase Assay buffers were:
A: 50 mM HEPES pH 7.5, 6 mM MnCl2, 1 mM DTT, 0.1% TritonX-100

The subject of a further experiment is LP-1 cell line. Nature of the experiment: Cell-based pERK ELISA in LP-1 multiple myeloma cells. To be noted: Homo sapiens. The protocol: LP-1 or JIM-1 multiple myeloma cells were seeded in 96 well plates at 1×10^6 cells/ml in 200 μl per well in serum free media. HUVEC cells were seeded at 2.5×10^5 cells/ml and allowed to recover for 24 h prior to transfer to serum free media. Cells were incubated for 16 h at 37° C. prior to the addition of a test compound for 30 minutes. Test compounds were administered at a 0.1% final DMSO concentration. Following this 30 minute incubation a FGF-1/Heparin (FGF-1 at 100 ng/ml final and Heparin at 100 ug/ml) mixture or VEGF^165 ([…]) was added to each of the wells for a further 5 minutes. The media was removed and 50 ul ERK ELISA lysis buffer (R and D Systems DuoSet ELISA for pERK and Total ERK #DYC-1940E, DYC-1018E) added. ELISA plates and standards were prepared according to the standard DuoSet protocols and the relative amounts of pERK to total ERK in each sample calculated according to the standard curve.
In particular, compounds of the invention were tested against the LP-1 cell line (DSMZ no.: ACC 41) derived from human multiple myeloma.

[1] abbreviates: given as a bound, read-out: IC50 in the FGFR3 assay.
The mark [2] stands for this setting: LP-1 cell line, given as a bound, read-out: IC50 in LP-1 pERK ELISA.
The mark [3] stands for this setting: in vitro kinase assay, 8 μM ATP, read-out: FGFR3 IC50.

Counter-ions that a name gives are not always drawn. Like-named read-outs stand apart in the source and are kept apart here. Bounds are passed on as bounds.

T1 sequence (P22607 23-806): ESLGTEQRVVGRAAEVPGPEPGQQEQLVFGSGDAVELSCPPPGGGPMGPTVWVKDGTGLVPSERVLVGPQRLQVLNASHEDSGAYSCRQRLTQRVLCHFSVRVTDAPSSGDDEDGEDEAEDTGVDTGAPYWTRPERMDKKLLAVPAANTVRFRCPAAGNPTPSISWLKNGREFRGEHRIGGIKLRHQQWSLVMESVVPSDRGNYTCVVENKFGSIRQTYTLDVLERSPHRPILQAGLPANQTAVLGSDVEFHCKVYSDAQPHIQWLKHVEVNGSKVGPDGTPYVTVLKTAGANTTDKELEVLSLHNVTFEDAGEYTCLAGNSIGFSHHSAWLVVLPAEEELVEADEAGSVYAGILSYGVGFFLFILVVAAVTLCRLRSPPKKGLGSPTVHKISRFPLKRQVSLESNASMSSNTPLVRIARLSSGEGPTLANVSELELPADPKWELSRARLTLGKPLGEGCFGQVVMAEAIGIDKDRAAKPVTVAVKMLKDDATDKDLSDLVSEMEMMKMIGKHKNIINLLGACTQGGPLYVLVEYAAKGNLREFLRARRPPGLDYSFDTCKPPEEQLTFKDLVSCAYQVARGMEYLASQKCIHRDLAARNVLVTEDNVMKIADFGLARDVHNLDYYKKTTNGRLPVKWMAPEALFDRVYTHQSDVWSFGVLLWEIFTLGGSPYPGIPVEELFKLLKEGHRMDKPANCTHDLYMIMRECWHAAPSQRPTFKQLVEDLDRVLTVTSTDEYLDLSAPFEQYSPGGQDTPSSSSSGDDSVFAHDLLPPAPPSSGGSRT

On to `Fc1ccc(-c2ccn3c(-c4cccc(Nc5cnccn5)c4)cnc3c2)cc1` [Example 1, {3-[7-(4-Fluoro-phenyl)-imidazo[1,2-a]pyridin-3-yl]-phenyl}-pyrazin-2-yl-amine], for which the IC50 at FGFR3 (setting [1]) is less than 1000 nM.

Turning to `c1cc(CN2CCOCC2)cc(-c2ccn3c(-c4cccc(Nc5nncs5)c4)cnc3c2)c1` [Example 2], the IC50 on FGFR3 (setting [1]) and in the experiment with LP-1 cell line (setting [2]) was less than 1000 nM in each case.

Regarding `Cc1nnc(Nc2cccc(-c3cnc4cc(-c5cccc(CN6CCOCC6)c5)ccn34)c2)s1` [Example 3], the IC50 on FGFR3 (setting [1]) and in the experiment on LP-1 cell line (setting [2]) was less than 1000 nM each time.

For `CN1CCN(Cc2ccc(-c3ccn4c(-c5cccc(Nc6cnn[nH]6)c5)cnc4c3)cc2)CC1` [Example 4, (3-{7-[4-(4-Methyl-piperazin-1-ylmethyl)-phenyl]-imidazo[1,2-a]pyridin-3-yl}-phenyl)-(3H-[1,2,3]triazol-4-yl)-amine formate salt], the IC50 at FGFR3 (setting [1]) and with LP-1 cell line (setting [2]) was less than 1000 nM each time.

For the molecule `Fc1ccc(-c2ccn3c(-c4cccc(Nc5ccncc5)c4)cnc3c2)cc1` [Example 6, {3-[7-(4-Fluoro-phenyl)-imidazo[1,2-a]pyridin-3-yl]-phenyl}-pyridin-4-yl-amine formate salt], on FGFR3 (setting [1]), the IC50 was less than 1000 nM.

Regarding `Fc1ccc(-c2ccn3c(-c4cccc(Nc5nncs5)c4)cnc3c2)cc1` [Example 7, {3-[7-(4-Fluoro-phenyl)-imidazo[1,2-a]pyridin-3-yl]-phenyl}-[1,3,4]thiadiazol-2-yl-amine], the IC50 on FGFR3 (setting [1]) was less than 1000 nM; at FGFR3 (setting [3]), 2.2 nM; in the experiment with LP-1 cell line (setting [2]), less than 1000 nM; with LP-1 cell line (LP-1 cells, FGF-1/heparin stimulation, pERK relative to total ERK, read-out: LP-1 pERK ELISA) it was 69 nM.

`c1ccc(Nc2cccc(-c3cnc4cc(-c5cccc(CN6CCOCC6)c5)ccn34)c2)cc1` [Example 8, {3-[7-(3-Morpholin-4-ylmethyl-phenyl)-imidazo[1,2-a]pyridin-3-yl]-phenyl}-phenyl-amine]: the IC50 on FGFR3 (setting [1]) is less than 1000 nM.

For `c1cc(Nc2nncs2)cc(-c2cnc3cc(N4CCOCC4)ccn23)c1` [Example 19, [3-(7-Morpholin-4-yl-imidazo[1,2-a]pyridin-3-yl)-phenyl]-[1,3,4]thiadiazol-2-yl-amine], the IC50 on FGFR3 (setting [1]) is less than 1000 nM.

For the molecule `CCS(=O)(=O)N1CCN(c2ccn3c(-c4cccc(Nc5nncs5)c4)cnc3c2)CC1` [Example 21, {3-[7-(4-Ethanesulfonyl-piperazin-1-yl)-imidazo[1,2-a]pyridin-3-yl]-phenyl}-[1,3,4]thiadiazol-2-yl-amine Hydrochloride], at FGFR3 (setting [1]), the IC50 is less than 1000 nM.

As to `O=C(c1cccc(-c2ccn3c(-c4cccc(Nc5nncs5)c4)cnc3c2)c1)N1CCOCC1` [Example 22, Morpholin-4-yl-(3-{3-[3-([1,3,4]thiadiazol-2-ylamino)-phenyl]-imidazo[1,2-a]pyridin-7-yl}-phenyl)-methanone Hydrochloride], the IC50 on FGFR3 (setting [1]) was less than 1000 nM.

With `Fc1ccc(-c2ccc3c(c2)ncn3-c2cccc(Nc3nncs3)c2)cc1` [Example 23, {3-[5-(4-Fluoro-phenyl)-benzoimidazol-1-yl]-phenyl}-[1,3,4]thiadiazol-2-yl-amine], the IC50 on FGFR3 (setting [1]) is less than 1000 nM.

Take `Nc1nc(Nc2cccc(-c3cnc4cc(-c5ccc(F)cc5)ccn34)c2)n[nH]1` [Example 27, N*3*-(3-[7-(4-Fluoro-phenyl)-imidazo[1,2-a]pyridin-3-yl]-phenyl}-1H-[1,2,4]triazole-3,5-diamine]: the values for the IC50 on FGFR3 (setting [1]) and at FGFR3 (setting [3]) were less than 1000 nM and 130 nM, respectively.

Take `Fc1ccc(-c2ccn3c(-c4cccc(Nc5nnco5)c4)cnc3c2)cc1` [Example 29, {3-[7-(4-Fluoro-phenyl)-imidazo[1,2-a]pyridin-3-yl]phenyl}-[1,3,4]oxadiazol-2-yl-amine]: the IC50 was less than 1000 nM at FGFR3 (setting [1]) and 11 nM at FGFR3 (setting [3]).

As to `Fc1ccc(-c2cnc3c(-c4cc(Nc5nncs5)ccn4)cnn3c2)cc1` [Example 31, {2-[6-(4-Fluoro-phenyl)-pyrazolo[1,5-a]pyrimidin-3-yl]-pyridin-4-yl}-[1,3,4]thiadiazol-2-yl-amine], the IC50 on FGFR3 (setting [1]) is less than 1000 nM; at FGFR3 (setting [3]), 350 nM.

As for `c1cc(Nc2nncs2)cc(-c2cnc3cc(-c4ccnc(OC5CCOCC5)c4)ccn23)c1` [Example 33], at FGFR3 (setting [1]), the IC50 is less than 1000 nM.

With `Cn1ccnc1Nc1cccc(-c2cnc3cc(-c4ccc(F)cc4)ccn23)c1` [Example 34, {3-[7-(4-Fluoro-phenyl)-imidazol[1,2-a]pyridin-3-yl]-phenyl}-(1-methyl-1H-imidazol-2-yl)-amine Hydrochloride], the IC50 is less than 1000 nM at FGFR3 (setting [1]) and 480 nM at FGFR3 (setting [3]).

As to `OCc1cccc(-c2ccn3c(-c4cccc(Nc5nncs5)c4)cnc3c2)c1` [Example 35, (3-{3-[3-([1,3,4]Thiadiazol-2-ylamino)-phenyl]-imidazo[1,2-a]pyridin-7-yl}-phenyl)-methanol], the IC50 at FGFR3 (setting [1]) was less than 1000 nM.

Take `CCOC(=O)N1CCN(c2ccn3c(-c4cccc(Nc5nncs5)c4)cnc3c2)CC1` [Example 36, 4-{3-[3-([1,3,4]Thiadiazol-2-ylamino)-phenyl]-imidazo[1,2-a]pyridin-7-yl}-piperazine-1-carboxylic acid ethyl ester]: the IC50 on FGFR3 (setting [1]) is less than 1000 nM.

Consider `Nc1ccc(-c2ccn3c(-c4cccc(Nc5nncs5)c4)cnc3c2)cn1` [Example 37, 5-{3-[3-([1,3,4]Thiadiazol-2-ylamino)-phenyl]-imidazo[1,2-a]pyridin-7-yl}-pyridin-2-ylamine Hydrochloride], for which the IC50 was less than 1000 nM at FGFR3 (setting [1]) and 2.55 nM on FGFR3 (setting [3]).

`CC(=O)N1CCN(c2ccn3c(-c4cccc(Nc5nncs5)c4)cnc3c2)CC1` [Example 38, 1-(4-{3-[3-([1,3,4]Thiadiazol-2-ylamino)-phenyl]-imidazo[1,2-a]pyridin-7-yl}-piperazin-1-yl)-ethanone]: the IC50 at FGFR3 (setting [1]) is less than 1000 nM.

In the case of `Fc1ccc(-c2ccn3c(-c4cccc(Nc5ncns5)c4)cnc3c2)cc1` [Example 39, {3-[7-(4-Fluoro-phenyl)-imidazo[1,2-a]pyridin-3-yl]phenyl}-[1,2,4]thiadiazol-5-yl-amine], the IC50 at FGFR3 (setting [1]) was less than 1000 nM; on FGFR3 (setting [3]), 115 nM.

Consider `CS(=O)(=O)NCc1cccc(-c2ccn3c(-c4cccc(Nc5nncs5)c4)cnc3c2)c1` [Example 40, N-(3-{3-[3-([1,3,4]Thiadiazol-2-ylamino)-phenyl]-imidazo[1,2-a]pyridin-7-yl}-benzyl)-methanesulfonamide], for which the IC50 at FGFR3 (setting [1]) is less than 1000 nM.

On to `Cc1ccn2c(-c3cccc(Nc4nncs4)c3)cnc2c1` [Example 41, [3-(7-Methyl-imidazo[1,2-a]pyridin-3-yl)phenyl]-[1,3,4]thiadiazol-2-yl-amine Hydrochloride], for which the IC50 at FGFR3 (setting [1]) is less than 1000 nM.

Take `Cn1cc(-c2ccn3c(-c4cccc(NCc5ccccc5)c4)cnc3c2)cn1` [Example 42, Benzyl-{3-[7-(1-methyl-1H-pyrazol-4-yl)-imidazo[1,2-a]pyridin-3-yl]phenyl}-amine]: the IC50 on FGFR3 (setting [1]) was less than 1000 nM.

As to `Clc1ccn2c(-c3cccc(NCc4ccccc4)c3)cnc2c1` [the product of Procedure F8, Benzyl-[3-(7-chloro-imidazo[1,2-a]pyridin-3-yl)-phenyl]-amine], at FGFR3 (setting [1]), the IC50 is less than 1000 nM.

On to `Clc1ccn2c(-c3cccc(Nc4cnn[nH]4)c3)cnc2c1` [the product of Procedure G1, [3-(7-Chloro-imidazo[1,2-a]pyridin-3-yl)-phenyl]-(3H-[1,2,3]triazol-4-yl)-amine], for which, at FGFR3 (setting [1]), the IC50 was less than 1000 nM.

The values are drawn from US8513276B2, “Imidazo[1,2-a]pyridine compounds for use in treating cancer” (Astex Therapeutics Limited, priority 2006, dated 2013).
